Assays:
[1] = compared with other PPIs such as omeprazole or lansoprazole; cited from earlier work
[2] = in vivo; settings: dog, plasma, po, 50 mg/kg
[3] = solubility in water

In the case of `COc1ccc2[nH]c([S+]([O-])Cc3ncc(C)c(OC)c3C)nc2n1` (racemic) [racemic tenatoprazole, 5-methoxy-2-[ [(4-methoxy-3,5-dimethyl-2-pyridyl)methyl]sulfinyl]imidazo[4,5-b]pyridine], the “half-life in plasma relative to other PPIs” value [1] is listed as “approximately seven times longer”, the AUC(0-t) [2] is listed as 156 µg·h/mL and the Cmax [2] is listed as 50.2 ng/mL. The Tmax [2] was 1.5 h and the solubility ([3]; water) was < 1000 µg/mL.

For `COc1ccc2nc([S+]([O-])Cc3ncc(C)c(OC)c3C)[n-]c2n1.[Na+]` (racemic) [sodium salt of racemic tenatoprazole], the “highest concentration of solution obtainable” value ([3]; room temperature) was ≤ 19 g/L.

Reference: patent publication US7402593B2 (priority 2004, dated 2008)
